# Test results published in patent US12570612B2, “Substituted nitrogen heterocyclic compound and anesthetic effect thereof” (priority 2019, dated 2026).
# Read-outs that look alike come from different tables or passages of the source.
# How the values were obtained:
# Sprague-Dawley rats [1] = test: animal or person; assay type: in vivo; conditions: rats
# From the text: Evaluating indicator: The end point of anesthesia: LORR was used as the end point of anesthesia; General anesthesia effect: the disappearance of forepaw righting reflex in rats lasting for 30 seconds is taken as the index of general anesthesia effect; Anesthesia recovery index: the recovery of rat forepaw righting reflex was used as the index of anesthesia recovery.
# Sprague-Dawley rats [2] = test: Pharmacological effect and adverse reactions under the equivalent dose (2ED50), Group C compounds; assay type: in vivo
# From the text: (§1) Evaluation index: onset time: from the completion of drug injection to the disappearance of forepaw righting reflex in rats; Duration of anesthesia: the time from the disappearance of rat forepaw righting reflex to the recovery of rat forepaw righting reflex; Recovery time of anesthesia: the time from the […] to complete recovery;
# adrenal cortex function [3] = test: Adrenocortical function in rats: corticosterone after dexamethasone and ACTH, Group C compounds
# Description: (§2) Instruments and equipment: multi-function ion meter (METTLER TOLEDO, models: SevenMulti), pipetting gun (Eppendorf, specifications: 1000 ul, 200 ul, 100 ul, 10 ul), electronic balance (model: ME215S, manufacturers: Sartorius, Germany), the timer. Experimental Method: Adult male Sprague-Dawley rats (250-300 g) were selected for the experiment (n=8), all the experiment were started in the morning. Place indwelling needles in tail vein of rats and inject dexamethasone (0.5 mg/kg). The first time of blood collection (S1) is in two hours later, and give dexamethasone (0.2 mg/kg). […] All the drugs were administered in a volume of 0.6 ml and at a rate of 0.1 ml/s. 15 min later, exogenous ACTH (25 ug/kg) was injected. Another blood sample was collected after 30 min(S2). The blood samples were left standing at room temperature for 30-60 min, followed by centrifugation at 3500 rpm for 10 min. The supernatant was taken and centrifuged again at 15000 rpm for 5 min before being frozen and stored in a −20° C. refrigerator.
# (§3) Evaluation indexes: The concentration of the corticosterone in the supernatant of rats before and after given drugs.
# SD rats [4] = system: SD rats
# Description: (§4) Experimental Methods: Adult male SD rats with body weight ranging from 250 g to 350 g were selected for continuous infusion test.
# (§5) Evaluation indexes: the time from the beginning of continuous infusion to the […] of sedation in rats; the time from the cessation of infusion to the restoration of the forepaw turning reflex after 1 hour of continuous infusion; the time from the cessation of infusion to the complete restoration of rats after 1 hour of continuous infusion.
# Sprague-Dawley rats [5] = assay type: in vivo; conditions: tail vein
# Sprague-Dawley rats [6] = test: animal or person; assay type: in vivo; conditions: rats; remark: listed apart in the source
# From the text: Evaluating indicator: The end point of anesthesia: the disappearance of forepaw righting reflex (lorr) was used as the end point of anesthesia; General anesthesia effect: the disappearance of forepaw righting reflex in rats lasting for 30 seconds is taken as the index of general anesthesia effect; Anesthesia recovery index: the recovery of rat forepaw righting reflex was used as the index of anesthesia recovery.
# Sprague-Dawley rats [7] = test: Pharmacological effect and adverse reactions under the equivalent dose (2ED50), Group D compounds; assay type: in vivo
# From the text: as §1
# adrenal cortex function [8] = test: Adrenocortical function in rats: corticosterone after dexamethasone and ACTH, Group D compounds; conditions: for Baseline(S1) corticosterone concentration: before drug
# Description: as §2, with “Equipment:” for “equipment:”, “min (S2).” for “min(S2).”
# as §3
# SD rats [9] = system: SD rats; remark: listed apart in the source
# Description: as §4, §5
# Sprague-Dawley rats [10] = assay type: in vivo; conditions: tail vein; remark: listed apart in the source
# [11] = LORR, up and down method, tail vein, class symbols
# [12] = equivalent dose (2ED50), number of rats of n = 8
# [13] = drug at 2ED50, 30 min after ACTH 25 ug/kg
# [14] = after 1 hour continuous infusion at 2 times the MIR, SD rats
# [15] = continuous infusion 2 x MIR 1 hour, rats affected/rats
# [16] = continuous tail vein infusion at 2 times the MIR, SD rats
# [17] = equivalent dose (2 × ED50), number of rats of n = 8
smiles,measurement,setting,value
CC#CCOCC(=O)c1cncn1[C@H](C)c1ccccc1 [Compound C27],ED50,Sprague-Dawley rats [1]; [11],"++ (++ means that the measured ED50 is in the range of 0.50-1.00 mg/kg (excluding 0.50 mg/kg, including 1.00 mg/kg))"
same,Approximate therapeutic index,Sprague-Dawley rats [1],>16.6
same,Righting reflex duration,"Sprague-Dawley rats [2]; 2ED50, tail vein, rats, n=8",1.48 ± 0.14 min
same,Sedation duration,"Sprague-Dawley rats [2]; 2ED50, tail vein, rats, n=8",4.39 ± 0.94 min
same,Onset time,"Sprague-Dawley rats [2]; 2ED50, tail vein, rats, n=8, unit s",<30 s
same,Adverse reaction: Convulsions,Sprague-Dawley rats [2]; [12],0
same,"Adverse reaction: Cough, broken-winded",Sprague-Dawley rats [2]; [12],0
same,Adverse reaction: Euphoria,Sprague-Dawley rats [2]; [12],0
same,Adverse reaction: Red urine,Sprague-Dawley rats [2]; [12],8
same,"Adverse reaction: Slower breathing, Tetany convulsion",Sprague-Dawley rats [2]; [12],0
same,"Adverse reaction: Systemic stiffness, Convulsions, Opisthotonus",Sprague-Dawley rats [2]; [12],1
same,Adverse reaction: Tongue stretching,Sprague-Dawley rats [2]; [12],2
same,Adverse reaction: Tremor,Sprague-Dawley rats [2]; [12],0
same,Adverse reaction: the four limbs rigidity,Sprague-Dawley rats [2]; [12],0
same,Give ACTH 30min later(S2) corticosterone concentration,adrenal cortex function [3]; [13],253.11 ± 34.56
same,Baseline(S1) corticosterone concentration,"adrenal cortex function [3]; two hours after dexamethasone 0.5 mg/kg, before drug",180.33 ± 46.70
same,After the infusion is stopped: Righting reflex recovery time,SD rats [4]; [14],12 to 16 min
same,Recovery time after stopping infusion,SD rats [4]; [14],15 to 20 min
same,Types and incidence of adverse reactions: Red urine,SD rats [4]; [15],6/6
same,Types and incidence of adverse reactions: Tremor,SD rats [4]; [15],5/6
same,Sedation onset time,SD rats [4]; [16],<5 min
same,Minimal lethal dose,Sprague-Dawley rats [5],>13.6 mg/kg
CCOC(OCC)(OCC)C(=O)c1cncn1[C@H](C)c1ccccc1 [Compound D76],ED50,Sprague-Dawley rats [6]; [11],"++ (++ indicates that the measured ED50 is in the range of 0.50-1.00 mg/kg (excluding 0.50 mg/kg, including 1.00 mg/kg))"
same,Approximate therapeutic index,Sprague-Dawley rats [6],>31.8
same,Righting reflex duration,"Sprague-Dawley rats [7]; 2ED50, tail vein, rats, n=8",1.67 ± 1.32 min
same,Sedation duration,"Sprague-Dawley rats [7]; 2ED50, tail vein, rats, n=8",6.44 ± 1.82 min
same,Onset time,"Sprague-Dawley rats [7]; 2ED50, tail vein, rats, n=8, unit min",<1 min
same,Adverse reaction: Convulsions,Sprague-Dawley rats [7]; [17],0
same,"Adverse reaction: Cough, broken-winded",Sprague-Dawley rats [7]; [17],0
same,Adverse reaction: Euphoria,Sprague-Dawley rats [7]; [17],0
same,Adverse reaction: Four limbs rigidity,Sprague-Dawley rats [7]; [17],2
same,Adverse reaction: Red urine,Sprague-Dawley rats [7]; [17],8
same,"Adverse reaction: Slower breathing, Tetany convulsion",Sprague-Dawley rats [7]; [17],0
same,"Adverse reaction: Systemic stiffness, Convulsions, Opisthotonus",Sprague-Dawley rats [7]; [17],8
same,Adverse reaction: Tongue stretching,Sprague-Dawley rats [7]; [17],0
same,Adverse reaction: Tremor,Sprague-Dawley rats [7]; [17],0
same,Baseline(S1) corticosterone concentration,adrenal cortex function [8]; Table 17 printed a second time,153.23 ± 30.91
same,Give ACTH 30min later(S2) corticosterone concentration,adrenal cortex function [8]; [13],277.88 ± 34.56
same,Give ACTH 30min later(S2) corticosterone concentration,"adrenal cortex function [8]; drug at 2ED50, 30 min after ACTH, Table 17 printed a second time",277.88 ± 34.56
same,Baseline(S1) corticosterone concentration,adrenal cortex function [8]; two hours after dexamethasone 0.5 mg/kg,153.23 ± 30.91
same,After the infusion is stopped: Righting reflex recovery time,SD rats [9]; [14],15 to 25 min
same,Recovery time after stopping infusion,SD rats [9]; [14],25 to 40 min
same,Types and incidence of adverse reactions: Hindlimb rigidity,SD rats [9]; [15],rigidity(2/6)
same,Types and incidence of adverse reactions: Red urine,SD rats [9]; [15],"Red urine(6/6), Hindlimb"
same,Sedation onset time,SD rats [9]; [16],<5 min
same,Minimal lethal dose,Sprague-Dawley rats [10],>11.5 mg/kg
